Bridge positions count the residues as written; N and C are the ends. Ends that are not written are not given here.
System: isolated rat aortic strips
Experiment: Neutralization experiment: contractile response of isolated rat aortic strips to ET-1
Conditions: synthetic ET-1 alone
Method: Contractile responses of rat aortic strips were performed as previously reported (Toda, S., Nakajima, S., Miyazaki, M., Ueda, M.: Vasodilation induced by pinacidil in dogs _ comparison with hydralizine and nifedipine. J. Cardiovasc. Pharmacol. 1985;7:1118-1126). Aortic strips were incubated in an organ bath perfused at 37°C with balanced salt solution containing 139.7 mEq Na⁺, 5.4 mEq K⁺, 2.2 mEq Ca²⁺, 1.0 mEq Mg²⁺, 131.5 mEq Cl⁻ and 20 mEq HCO₃⁻. Purified monoclonal antibody (0.05 µg/ml - 5 µg/ml) was added 3 min before the ET-1 administration.

Q: How did the vasoconstriction turn out when “ET-1: endothelin-1, purchased from Peptide Institute Inc.; original form isolated from culture medium of porcine aortic endothelial cells (CSCSSLMDKECVYFCHLDIIW; disulfide 1-15, 3-11; ends not checked; UniProt P05305 53-73, looked up)” was run?
A: induced a vasoconstriction in isolated rat aortic strips in a dose-dependent manner

Reference: patent EP0406628A1, “Monoclonal antibody against endothelin, hybridoma capable of producing the same and radioimmunoassay for endothelin by using the same” (SHIONOGI & CO., LTD., priority 1989, dated 1991)
